We go through 4 molecules from patent US10729680B2, “5-substituted 2-(morpholin-4-yl)-1,7-naphthyridines” (BAYER PHARMA AKTIENGESELLSCHAFT, priority 2016, dated 2020).

For assay [1], the system named is HeLa cells. Kind of assay: Proliferation assay (HeLa, crystal violet). The format is cell-based. The following applies: Homo sapiens, 96 h, 4 days incubation, crystal violet staining, read-out: Inhibition of HeLa cell proliferation. The procedure:
Human tumour cells were originally obtained from the American Type Culture Collection (ATCC), the Deutsche Sammlung von Mikroorganismen und Zellkulturen (DSMZ, German Collection of Microorganisms and Cell Cultures) or Epo GmbH, Berlin.
Adherently growing cells (HeLa, HeLa-MaTu-ADR, HT-144, Lovo, HT-29, NCI-H460, DU145, Caco2, B16F10) were plated out in a density of 1500-4000 cells/measurement point, depending on the rate of growth of the cell line, in a 96-well multititre plate in 200 μl of growth medium (DMEM/HAMS F12, 2 mM L-glutamine, 10% foetal calf serum). After 24 hours, the cells of one plate (zero plate) were dyed with crystal violet (see below), whereas the medium of the other plates was replaced with fresh culture medium (200 μl) to which the test substances were added in various concentrations (0 μM, and also in the range of 0.001-10 μM; the final concentration of the solvent dimethyl sulphoxide was 0.1 or 0.5%). The cells were incubated for 4 days in the presence of the test substances. Cell proliferation was determined by staining the cells with crystal violet: the cells were fixed at room temperature for 15 min by adding 20 μl/measurement point of an 11% strength glutaraldehyde solution. After washing the fixed cells three times with water, the plates were dried at room temperature. The cells were stained by adding 100 μl/measurement point of a 0.1% strength crystal violet solution (pH adjusted to pH 3 by adding acetic acid). After washing the cells three times with water, the plates were dried at room temperature. The dye was dissolved by adding 100 μl/measurement point of a 10% strength acetic acid solution. Absorbance was determined photometrically at a wavelength of 595 nm. The percentage change in cell growth was calculated by normalizing the measured values to the absorbance values of the zero plate (=0%) and the absorbance of the untreated (0 μM) cells (=100%). The IC50 values were determined by means of a four parameter fit.
Inhibition of proliferation of HeLa cells by compounds according to the present invention, determined as described above. All IC50 (inhibitory concentration at 50% of maximal effect) values are indicated in M, “n.t.” means that the compounds have not been tested in the respective assay.

Assay [2] deals with full-length human ATR protein (ATR/ATRIP) (Homo sapiens (Human), UniProt Q13535). Kind of assay: Binding Assay ATR (TR-FRET, tracer A displacement). Particulars: displacement of fluorescent tracer A from GST-ATR/ATRIP. An outline of the steps:
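GST-tagged full-length human ATR co-purified with ATRIP, 4.2 nM stock working solution, pre-complexed 30 min with 4.2 nM anti-GST-Tb in HEPES pH 7.0/MgCl2/DTT buffer. Compound pre-bound 10 min, then tracer A (100 nM solution) added for 30 min at 22 °C. 570/545 nm TR-FRET ratio; 11 concentrations 20 μM-0.1 nM; IC50 by 4-parameter fit.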

full-length human ATR protein (ATR/ATRIP), sequence (Q13535 other isoform, or with tags, fused parts or gaps): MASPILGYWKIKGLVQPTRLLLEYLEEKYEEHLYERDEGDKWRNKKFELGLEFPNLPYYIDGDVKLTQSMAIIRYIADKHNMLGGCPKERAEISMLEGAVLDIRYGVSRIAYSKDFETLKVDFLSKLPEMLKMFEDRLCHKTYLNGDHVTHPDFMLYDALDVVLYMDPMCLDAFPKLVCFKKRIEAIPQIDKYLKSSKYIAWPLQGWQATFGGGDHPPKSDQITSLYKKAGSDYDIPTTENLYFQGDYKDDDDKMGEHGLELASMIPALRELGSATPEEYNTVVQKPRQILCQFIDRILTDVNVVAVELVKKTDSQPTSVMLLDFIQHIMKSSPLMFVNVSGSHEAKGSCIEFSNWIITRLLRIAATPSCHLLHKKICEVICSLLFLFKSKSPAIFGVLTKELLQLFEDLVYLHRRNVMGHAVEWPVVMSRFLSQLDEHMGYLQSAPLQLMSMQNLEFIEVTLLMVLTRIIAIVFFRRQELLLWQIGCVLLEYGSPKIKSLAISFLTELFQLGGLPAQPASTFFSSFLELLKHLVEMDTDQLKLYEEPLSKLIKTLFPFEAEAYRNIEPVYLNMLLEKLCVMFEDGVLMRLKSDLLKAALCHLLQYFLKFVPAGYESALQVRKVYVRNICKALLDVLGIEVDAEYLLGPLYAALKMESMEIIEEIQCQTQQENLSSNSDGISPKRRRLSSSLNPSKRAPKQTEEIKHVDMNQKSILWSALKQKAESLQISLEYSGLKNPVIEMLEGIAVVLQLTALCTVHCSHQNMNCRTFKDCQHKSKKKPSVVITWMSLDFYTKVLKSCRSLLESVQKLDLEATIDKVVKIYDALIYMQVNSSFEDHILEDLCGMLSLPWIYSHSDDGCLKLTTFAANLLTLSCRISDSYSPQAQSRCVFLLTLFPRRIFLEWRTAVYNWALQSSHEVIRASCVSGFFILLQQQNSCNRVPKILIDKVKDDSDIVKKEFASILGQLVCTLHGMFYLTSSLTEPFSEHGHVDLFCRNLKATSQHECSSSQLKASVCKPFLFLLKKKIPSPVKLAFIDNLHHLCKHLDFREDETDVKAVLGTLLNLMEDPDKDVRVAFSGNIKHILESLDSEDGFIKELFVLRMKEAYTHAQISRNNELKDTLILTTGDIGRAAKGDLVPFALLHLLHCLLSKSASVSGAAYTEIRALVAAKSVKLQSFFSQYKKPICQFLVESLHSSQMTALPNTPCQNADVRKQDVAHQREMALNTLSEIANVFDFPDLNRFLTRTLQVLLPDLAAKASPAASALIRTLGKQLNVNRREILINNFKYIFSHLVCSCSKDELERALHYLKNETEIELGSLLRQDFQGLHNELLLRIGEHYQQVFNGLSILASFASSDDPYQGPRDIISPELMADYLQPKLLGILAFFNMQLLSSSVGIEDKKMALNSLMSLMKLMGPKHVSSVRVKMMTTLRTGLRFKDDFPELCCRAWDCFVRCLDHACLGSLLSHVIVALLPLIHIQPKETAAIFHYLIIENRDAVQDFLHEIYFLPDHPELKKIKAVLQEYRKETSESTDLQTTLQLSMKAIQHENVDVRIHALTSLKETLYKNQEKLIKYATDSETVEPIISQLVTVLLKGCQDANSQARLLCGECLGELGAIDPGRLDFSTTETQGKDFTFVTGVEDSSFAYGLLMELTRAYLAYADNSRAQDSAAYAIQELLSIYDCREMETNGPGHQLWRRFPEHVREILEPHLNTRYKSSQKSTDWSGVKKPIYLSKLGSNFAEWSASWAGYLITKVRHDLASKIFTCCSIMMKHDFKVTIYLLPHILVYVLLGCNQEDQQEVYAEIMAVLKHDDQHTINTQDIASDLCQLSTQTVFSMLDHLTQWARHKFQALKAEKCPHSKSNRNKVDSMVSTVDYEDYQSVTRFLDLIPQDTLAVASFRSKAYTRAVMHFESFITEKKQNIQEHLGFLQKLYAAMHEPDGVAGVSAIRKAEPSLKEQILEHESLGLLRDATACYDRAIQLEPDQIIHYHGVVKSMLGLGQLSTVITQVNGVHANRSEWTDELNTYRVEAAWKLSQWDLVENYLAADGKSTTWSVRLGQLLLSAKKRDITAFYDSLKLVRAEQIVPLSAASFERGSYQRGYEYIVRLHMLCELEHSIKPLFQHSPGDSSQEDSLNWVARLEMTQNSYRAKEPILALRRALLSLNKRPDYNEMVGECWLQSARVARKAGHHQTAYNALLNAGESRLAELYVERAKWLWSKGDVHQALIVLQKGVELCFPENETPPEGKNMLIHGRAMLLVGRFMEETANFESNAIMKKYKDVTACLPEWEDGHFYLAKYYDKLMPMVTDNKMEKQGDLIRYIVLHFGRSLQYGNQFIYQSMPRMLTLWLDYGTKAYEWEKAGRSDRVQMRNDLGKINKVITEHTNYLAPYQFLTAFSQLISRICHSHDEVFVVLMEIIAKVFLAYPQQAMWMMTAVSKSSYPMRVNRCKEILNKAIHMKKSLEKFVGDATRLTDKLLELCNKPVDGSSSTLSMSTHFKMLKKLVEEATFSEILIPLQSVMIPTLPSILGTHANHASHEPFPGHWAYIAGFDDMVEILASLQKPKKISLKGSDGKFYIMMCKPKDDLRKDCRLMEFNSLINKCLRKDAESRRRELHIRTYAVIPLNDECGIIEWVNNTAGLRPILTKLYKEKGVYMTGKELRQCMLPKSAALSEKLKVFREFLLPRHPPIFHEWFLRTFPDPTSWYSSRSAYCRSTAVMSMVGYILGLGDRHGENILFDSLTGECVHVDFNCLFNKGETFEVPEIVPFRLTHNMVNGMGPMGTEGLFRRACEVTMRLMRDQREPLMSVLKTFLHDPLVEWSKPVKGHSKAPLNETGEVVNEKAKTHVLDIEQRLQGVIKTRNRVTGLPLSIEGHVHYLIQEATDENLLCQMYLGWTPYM
full-length human ATR protein (ATR/ATRIP), sequence (Q8WXE1 other isoform, or with tags, fused parts or gaps partner): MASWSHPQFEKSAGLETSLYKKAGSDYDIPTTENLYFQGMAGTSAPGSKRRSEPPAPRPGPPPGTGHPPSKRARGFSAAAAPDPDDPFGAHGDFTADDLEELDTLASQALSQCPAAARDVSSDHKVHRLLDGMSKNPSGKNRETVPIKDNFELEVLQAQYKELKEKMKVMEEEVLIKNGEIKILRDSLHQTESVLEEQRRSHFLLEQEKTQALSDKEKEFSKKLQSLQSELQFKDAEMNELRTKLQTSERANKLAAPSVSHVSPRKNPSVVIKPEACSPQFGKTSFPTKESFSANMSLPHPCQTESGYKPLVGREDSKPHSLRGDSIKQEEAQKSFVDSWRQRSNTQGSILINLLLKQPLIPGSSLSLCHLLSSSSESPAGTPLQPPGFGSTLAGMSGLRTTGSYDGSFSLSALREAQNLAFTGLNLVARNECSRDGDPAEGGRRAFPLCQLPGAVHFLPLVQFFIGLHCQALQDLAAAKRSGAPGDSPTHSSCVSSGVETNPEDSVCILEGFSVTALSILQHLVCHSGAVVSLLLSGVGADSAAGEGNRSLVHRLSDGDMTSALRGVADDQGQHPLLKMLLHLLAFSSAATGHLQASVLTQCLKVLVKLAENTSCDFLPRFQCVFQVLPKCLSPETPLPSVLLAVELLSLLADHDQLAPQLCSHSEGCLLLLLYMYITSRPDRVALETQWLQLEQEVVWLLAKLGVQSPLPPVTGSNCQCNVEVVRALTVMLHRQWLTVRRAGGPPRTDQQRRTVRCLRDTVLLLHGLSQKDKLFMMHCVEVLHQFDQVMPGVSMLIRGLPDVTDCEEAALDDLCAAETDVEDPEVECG

For the molecule `COC(=O)c1cc(N2CCOC[C@H]2C)nc2c(-c3ccn[nH]3)ncc(C)c12` [Example 14, methyl 5-methyl-2-[(3R)-3-methylmorpholin-4-yl]-8-(1H-pyrazol-5-yl)-1,7-naphthyridine-4-carboxylate], the results for the IC50 in assay [1] and in assay [2] were 440 nM and 53 nM, respectively.

On to `Cc1cnc(-c2ccn[nH]2)c2nc(N3CCOC[C@H]3C)cc(-c3cncn3C)c12` [Example 15, 5-methyl-4-(1-methyl-1H-imidazol-5-yl)-2-[(3R)-3-methylmorpholin-4-yl]-8-(1H-pyrazol-5-yl)-1,7-naphthyridine], for which the IC50 came out at 145 nM in assay [1] and 5.86 nM in assay [2].

Take `Cc1ncc(-c2cc(N3CCOC[C@H]3C)nc3c(-c4ccn[nH]4)ncc(C)c23)s1` [Example 16, 5-methyl-2-[(3R)-3-methylmorpholin-4-yl]-4-(2-methyl-1,3-thiazol-5-yl)-8-(1H-pyrazol-5-yl)-1,7-naphthyridine]: the IC50 in assay [1] turned out to be 33.9 nM; in assay [2], 14.2 nM.

In the case of `CCOP(C)(=O)c1cc(N2CCOC[C@H]2C)nc2c(-c3ccn[nH]3)ncc(C)c12` (stereo partly drawn) [Example 17, ethyl methyl{5-methyl-2-[(3R)-3-methylmorpholin-4-yl]-8-(1H-pyrazol-5-yl)-1,7-naphthyridin-4-yl}phosphinate], the IC50 in assay [1] worked out at 112 nM; in assay [2], 42.2 nM.
